Laboratory results published in patent publication US20240101562A1, “NOVEL COMPOUND, AND PHARMACEUTICAL COMPOSITION FOR PREVENTING OR TREATING RESISTANT CANCER, COMPRISING SAME” (HOLOSMEDIC, priority 2020, published 2024).

Key:
Type in all cases: cell-based
[1] = test system: SKOV3 cell line (epithelial ovarian cancer); assay: WST-1 assay, co-treatment with docetaxel, SKOV3; settings: docetaxel alone, 0.75 nM, SKOV3, three days
Description: (§1) According to the results of WST-1 assays, which measure cell proliferation or survival, a reduction in metabolism in SKOV3 and SKOV3-TR was induced by docetaxel treatment.
(§2) After SKOV3 and SKOV3-TR were co-treated with 79 types of compounds and docetaxel, the WST-1 assays were performed.
(§3) Specifically, the two cancer cell lines grown in 96-well plates were treated with the 79 types of compounds at a low concentration (0.5 μM) or a high concentration (2 μM) and docetaxel, and the docetaxel concentration used herein were 1 μM for the SKOV3-TR cell line and 0.75 nM for the SKOV3 cell line. For cytotoxicity analysis, three days after the co-treatment of DMSO (docetaxel, compound solvent), docetaxel and the 79 types of compounds, the WST-1 assays were performed.

[2] = test system: SKOV3-TR cell line (paclitaxel-resistant, derived from SKOV3); assay: WST-1 assay, co-treatment with docetaxel, SKOV3-TR; settings: docetaxel alone, 1 μM, three days
Description: as §1, §2, §3

[3] = test system: SKOV3-TR cell line (paclitaxel-resistant, derived from SKOV3); assay: WST-1 assay, co-treatment with paclitaxel, SKOV3-TR; settings: paclitaxel alone, 3 μM or 4 μM, three days
Description: (§4) According to the results of WST-1 assays, which measure cell proliferation or survival, a reduction in metabolism in SKOV3 and SKOV3-TR was induced by paclitaxel treatment. The WST-1 assays were performed after SKOV3 and SKOV3-TR were co-treated with 79 types of compounds and paclitaxel.
(§5) Specifically, the two cancer cell lines grown in 96-well plates were treated with the 79 types of compounds at a low concentration (0.5 μM) or a high concentration (2 μM) and paclitaxel, and the paclitaxel concentration used herein was 3 μM or 4 μM for the SKOV3-TR cell line, and 2 nM or 0.05 μM for the SKOV3 cell line. For cytotoxicity analysis, three days after co-treatment of DMSO (paclitaxel, compound solvent), paclitaxel and the 79 types of compounds, the WST-1 assays were performed.

[4] = test system: SKOV3 cell line (epithelial ovarian cancer); assay: WST-1 assay, co-treatment with paclitaxel, SKOV3; settings: paclitaxel alone, 2 nM or 0.05 μM, SKOV3, three days
Description: as §4, §5

Row | Compound | absorbance at 450 nm compared to the DMSO-treated group [1] | absorbance at 450 nm compared to the DMSO-treated group [2] | absorbance at 450 nm compared to the DMSO-treated group [3] | absorbance at 450 nm compared to the DMSO-treated group [4]
1 | CC(=O)O[C@@]12CO[C@@H]1C[C@H](O)[C@@]1(C)C(=O)[C@H](O)C3=C(C)[C@@H](OC(=O)[C@H](O)[C@@H](NC(=O)OC(C)(C)C)c4ccccc4)C[C@@](O)([C@@H](OC(=O)c4ccccc4)[C@H]21)C3(C)C [docetaxel] | reduced | reduced | – | –
2 | CC(=O)O[C@H]1C(=O)[C@@]2(C)[C@H]([C@H](OC(=O)c3ccccc3)[C@]3(O)C[C@H](OC(=O)[C@H](O)[C@@H](NC(=O)c4ccccc4)c4ccccc4)C(C)=C1C3(C)C)[C@]1(OC(C)=O)CO[C@@H]1C[C@@H]2O [paclitaxel] | – | – | reduced | reduced
